Reference: ChEMBL document CHEMBL1909046, “DrugMatrix in vitro pharmacology data”

Assays:
[1] = target: T1, Type-2 angiotensin II receptor (Homo sapiens, UniProt P50052); format: cell-based; settings: cho-k1
T1 sequence (P50052 whole entry): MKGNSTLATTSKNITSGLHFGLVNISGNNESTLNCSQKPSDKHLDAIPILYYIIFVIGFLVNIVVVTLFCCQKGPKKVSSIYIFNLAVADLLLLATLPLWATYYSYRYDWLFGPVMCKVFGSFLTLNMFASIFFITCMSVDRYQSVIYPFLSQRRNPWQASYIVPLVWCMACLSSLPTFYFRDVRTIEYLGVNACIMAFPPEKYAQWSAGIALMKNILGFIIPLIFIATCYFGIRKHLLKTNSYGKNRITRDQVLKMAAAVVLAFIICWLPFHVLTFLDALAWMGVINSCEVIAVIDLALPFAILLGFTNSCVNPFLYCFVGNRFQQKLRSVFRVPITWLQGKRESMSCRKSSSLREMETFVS

[2] = target: 5-hydroxytryptamine receptor 2B (Homo sapiens, UniProt P41595); format: cell membranes, CHO-K1, Membrane; settings: for Ki: read-out: Ki
[3] = target: T2, Nitric oxide synthase, inducible (Mus musculus, UniProt P29477); parameters: species or system Escherichia coli;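 note: inhibition of iNOS enzyme activity measured with L-arginine as substrate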
T2 sequence (P29477 whole entry): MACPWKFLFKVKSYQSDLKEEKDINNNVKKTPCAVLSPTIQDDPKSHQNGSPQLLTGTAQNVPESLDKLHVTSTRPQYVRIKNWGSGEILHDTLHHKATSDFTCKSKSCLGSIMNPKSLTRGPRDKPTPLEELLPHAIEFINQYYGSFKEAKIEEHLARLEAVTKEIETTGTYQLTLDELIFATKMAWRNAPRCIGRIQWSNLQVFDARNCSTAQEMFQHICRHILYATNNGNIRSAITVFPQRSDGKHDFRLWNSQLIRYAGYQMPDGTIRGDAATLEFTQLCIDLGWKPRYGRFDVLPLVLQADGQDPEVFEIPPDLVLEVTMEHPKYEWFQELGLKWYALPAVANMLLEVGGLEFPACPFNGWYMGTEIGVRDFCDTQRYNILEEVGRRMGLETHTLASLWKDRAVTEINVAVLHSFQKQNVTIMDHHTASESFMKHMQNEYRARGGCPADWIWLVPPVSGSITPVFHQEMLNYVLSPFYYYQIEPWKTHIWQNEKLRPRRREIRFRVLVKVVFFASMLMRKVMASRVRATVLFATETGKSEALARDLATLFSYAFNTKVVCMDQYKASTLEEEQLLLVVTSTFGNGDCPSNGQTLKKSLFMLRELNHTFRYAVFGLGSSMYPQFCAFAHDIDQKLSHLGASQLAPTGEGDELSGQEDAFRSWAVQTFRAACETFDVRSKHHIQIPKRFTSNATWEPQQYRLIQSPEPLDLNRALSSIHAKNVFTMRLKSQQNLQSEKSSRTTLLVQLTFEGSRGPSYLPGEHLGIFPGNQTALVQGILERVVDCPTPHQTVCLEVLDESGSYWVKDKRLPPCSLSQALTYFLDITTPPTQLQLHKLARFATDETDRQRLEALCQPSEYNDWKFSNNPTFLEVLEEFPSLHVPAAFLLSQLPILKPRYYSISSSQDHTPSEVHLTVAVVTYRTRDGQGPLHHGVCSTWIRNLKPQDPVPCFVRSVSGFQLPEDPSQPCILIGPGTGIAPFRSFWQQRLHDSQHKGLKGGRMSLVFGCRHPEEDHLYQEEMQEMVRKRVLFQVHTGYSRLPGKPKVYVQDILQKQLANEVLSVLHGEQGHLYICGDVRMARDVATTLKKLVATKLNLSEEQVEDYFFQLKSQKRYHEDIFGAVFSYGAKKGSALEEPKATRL

[4] = target: Matrix metalloproteinase-9 (Homo sapiens, UniProt P14780); experiment: biochemical; format: cell-based;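 note: inhibition of isolated MMP-9 enzyme activity toward a synthetic peptide substrate, from the DrugMatrix protease screening panel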
[5] = target: T3, 5-hydroxytryptamine receptor 1A (Rattus norvegicus, UniProt P19327); format: cell membranes, CHO-K1, Membrane
T3 sequence (P19327 whole entry): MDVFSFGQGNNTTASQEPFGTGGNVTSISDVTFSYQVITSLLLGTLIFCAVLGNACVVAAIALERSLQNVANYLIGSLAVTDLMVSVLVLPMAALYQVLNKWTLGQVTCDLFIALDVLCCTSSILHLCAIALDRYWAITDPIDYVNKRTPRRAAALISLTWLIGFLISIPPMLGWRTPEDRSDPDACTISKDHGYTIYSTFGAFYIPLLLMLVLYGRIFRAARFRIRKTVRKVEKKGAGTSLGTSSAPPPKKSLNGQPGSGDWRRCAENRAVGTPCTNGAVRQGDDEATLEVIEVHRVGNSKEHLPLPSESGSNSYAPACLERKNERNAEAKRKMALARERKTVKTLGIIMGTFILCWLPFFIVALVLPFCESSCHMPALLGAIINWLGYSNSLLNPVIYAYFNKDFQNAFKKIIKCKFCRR

Cytochrome P450 1A2 = target: T4, Cytochrome P450 1A2 (Homo sapiens, UniProt P05177); settings: bti-tn-5b1-4
T4 sequence (P05177 whole entry): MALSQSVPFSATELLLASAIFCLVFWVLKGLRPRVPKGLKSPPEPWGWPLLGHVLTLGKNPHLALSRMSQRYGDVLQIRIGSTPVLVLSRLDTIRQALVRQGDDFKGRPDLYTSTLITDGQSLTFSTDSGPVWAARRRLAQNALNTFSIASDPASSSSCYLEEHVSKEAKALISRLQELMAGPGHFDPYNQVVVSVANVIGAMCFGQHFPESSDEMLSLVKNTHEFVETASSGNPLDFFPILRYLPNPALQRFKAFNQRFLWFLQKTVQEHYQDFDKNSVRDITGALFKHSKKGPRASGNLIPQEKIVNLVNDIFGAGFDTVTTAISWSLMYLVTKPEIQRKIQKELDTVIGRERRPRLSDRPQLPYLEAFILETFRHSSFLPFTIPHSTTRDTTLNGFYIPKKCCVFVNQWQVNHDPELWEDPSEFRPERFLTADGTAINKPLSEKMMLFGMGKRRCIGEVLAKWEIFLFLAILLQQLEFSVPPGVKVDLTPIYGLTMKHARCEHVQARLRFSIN

[6] = target: Voltage-gated inwardly rectifying potassium channel KCNH2 (Homo sapiens, UniProt Q12809); settings: hek293
Note: in other assays of this panel Not Active means under 50% inhibition at 10 µM.

Chain of Voltage-gated inwardly rectifying potassium channel KCNH2 (Q12809 whole entry): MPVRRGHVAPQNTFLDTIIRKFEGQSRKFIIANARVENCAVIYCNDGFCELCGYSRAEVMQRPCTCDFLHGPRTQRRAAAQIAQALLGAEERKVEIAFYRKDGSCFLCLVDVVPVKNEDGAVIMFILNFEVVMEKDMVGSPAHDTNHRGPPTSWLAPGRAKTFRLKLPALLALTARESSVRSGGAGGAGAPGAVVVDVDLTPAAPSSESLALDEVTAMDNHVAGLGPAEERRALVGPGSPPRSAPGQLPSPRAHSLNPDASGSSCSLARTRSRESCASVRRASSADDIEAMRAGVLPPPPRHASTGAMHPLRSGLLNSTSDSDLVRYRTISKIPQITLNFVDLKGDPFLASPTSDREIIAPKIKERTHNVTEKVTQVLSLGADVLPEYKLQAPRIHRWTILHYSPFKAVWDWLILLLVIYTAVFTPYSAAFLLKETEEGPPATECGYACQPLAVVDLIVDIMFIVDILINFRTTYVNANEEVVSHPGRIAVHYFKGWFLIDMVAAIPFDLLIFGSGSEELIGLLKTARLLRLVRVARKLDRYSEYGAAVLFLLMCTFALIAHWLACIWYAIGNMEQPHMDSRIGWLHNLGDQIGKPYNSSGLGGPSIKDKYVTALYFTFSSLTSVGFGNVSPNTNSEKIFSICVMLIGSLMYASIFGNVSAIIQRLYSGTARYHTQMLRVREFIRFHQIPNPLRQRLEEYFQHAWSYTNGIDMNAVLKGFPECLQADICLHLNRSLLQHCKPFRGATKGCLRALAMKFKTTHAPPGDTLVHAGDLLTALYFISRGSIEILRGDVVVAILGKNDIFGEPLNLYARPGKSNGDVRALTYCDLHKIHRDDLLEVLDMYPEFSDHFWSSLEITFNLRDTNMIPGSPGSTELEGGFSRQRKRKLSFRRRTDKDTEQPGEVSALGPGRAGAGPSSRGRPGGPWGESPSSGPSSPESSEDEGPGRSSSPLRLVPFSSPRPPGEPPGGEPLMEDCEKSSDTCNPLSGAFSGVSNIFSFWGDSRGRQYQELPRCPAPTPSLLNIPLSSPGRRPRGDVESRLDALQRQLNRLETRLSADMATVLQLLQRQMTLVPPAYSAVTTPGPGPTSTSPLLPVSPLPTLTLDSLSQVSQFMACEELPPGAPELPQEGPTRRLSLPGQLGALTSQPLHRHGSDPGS
Chain of 5-hydroxytryptamine receptor 2B (P41595 whole entry): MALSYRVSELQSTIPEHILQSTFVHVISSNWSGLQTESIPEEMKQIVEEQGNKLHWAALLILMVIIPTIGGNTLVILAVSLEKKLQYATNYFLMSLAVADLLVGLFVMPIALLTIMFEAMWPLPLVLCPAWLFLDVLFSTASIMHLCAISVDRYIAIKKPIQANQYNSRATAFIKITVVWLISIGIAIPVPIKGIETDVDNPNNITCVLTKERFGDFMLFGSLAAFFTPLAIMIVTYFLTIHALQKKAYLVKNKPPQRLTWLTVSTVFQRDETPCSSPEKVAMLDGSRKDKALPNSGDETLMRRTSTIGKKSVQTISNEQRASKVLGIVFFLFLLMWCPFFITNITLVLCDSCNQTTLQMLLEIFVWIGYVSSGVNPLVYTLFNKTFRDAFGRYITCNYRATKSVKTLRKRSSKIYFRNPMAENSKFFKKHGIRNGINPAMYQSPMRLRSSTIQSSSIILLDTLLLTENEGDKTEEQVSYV
Chain of Matrix metalloproteinase-9 (P14780 whole entry): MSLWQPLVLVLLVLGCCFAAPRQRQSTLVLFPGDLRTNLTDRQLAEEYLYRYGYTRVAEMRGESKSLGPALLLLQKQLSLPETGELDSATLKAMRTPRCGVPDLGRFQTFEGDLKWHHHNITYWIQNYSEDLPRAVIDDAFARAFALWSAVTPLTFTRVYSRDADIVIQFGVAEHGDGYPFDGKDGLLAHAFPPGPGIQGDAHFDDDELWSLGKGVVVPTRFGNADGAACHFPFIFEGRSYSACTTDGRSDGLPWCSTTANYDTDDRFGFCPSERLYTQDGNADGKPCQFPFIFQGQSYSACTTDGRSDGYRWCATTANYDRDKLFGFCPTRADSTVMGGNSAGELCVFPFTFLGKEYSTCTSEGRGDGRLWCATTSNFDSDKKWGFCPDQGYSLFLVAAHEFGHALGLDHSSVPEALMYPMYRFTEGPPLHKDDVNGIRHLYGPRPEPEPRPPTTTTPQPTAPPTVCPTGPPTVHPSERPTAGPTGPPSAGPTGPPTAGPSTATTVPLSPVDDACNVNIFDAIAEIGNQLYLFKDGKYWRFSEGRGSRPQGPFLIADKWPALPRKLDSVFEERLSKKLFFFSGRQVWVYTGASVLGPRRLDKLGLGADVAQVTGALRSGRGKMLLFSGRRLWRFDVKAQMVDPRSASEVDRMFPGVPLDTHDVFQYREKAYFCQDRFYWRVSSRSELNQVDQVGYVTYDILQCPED

SMILES	IC50 [1]	IC50 ([2]; cho-k1)	IC50 [3]	IC50 [4]	IC50 ([5]; cho-k1)	IC50 (Cytochrome P450 1A2)	Ki (Cytochrome P450 1A2)	IC50 [6]	Ki [6]	IC50 ([2]; read-out: IC50)	Ki [2]	IC50 ([5]; read-out: IC50)	Ki ([5]; read-out: Ki)	IC50 ([4]; read-out: IC50)
CO[C@H]1[C@@H](O)[C@H](N)[C@@H](O[C@H]2O[C@H]([C@H](C)N)CC[C@H]2N)[C@H](O)[C@@H]1N(C)C(=O)CN [ASTROMICIN]	Not Active	Not Active	Not Active	Not Active	Not Active	Not Active	Not Active	Not Active	Not Active	–	–	–	–	–
[N-]=[N+]=CC(=O)OC[C@H](N)C(=O)O [AZASERINE]	Not Active	Not Active	Not Active	Not Active	Not Active	Not Active	Not Active	Not Active	Not Active	–	–	–	–	–
CC[C@H]1OC(=O)[C@H](C)[C@@H](O[C@H]2C[C@@](C)(OC)[C@@H](O)[C@H](C)O2)[C@H](C)[C@@H](O[C@@H]2O[C@H](C)C[C@H](N(C)C)[C@H]2O)[C@](C)(O)C[C@@H](C)CN(C)[C@H](C)[C@@H](O)[C@]1(C)O [AZITHROMYCIN]	Not Active	Not Active	Not Active	Not Active	Not Active	Not Active	Not Active	Not Active	Not Active	–	–	–	–	–
CC(C)(C)c1ccc(S(=O)(=O)/C=C/C#N)cc1 [BAY-11-7085]	Not Active	Not Active	Not Active	Not Active	Not Active	Not Active	Not Active	Not Active	Not Active	–	–	–	–	–
CCc1oc2ccccc2c1C(=O)c1cc(Br)c(O)c(Br)c1 [BENZBROMARONE]	Not Active	–	Not Active	Not Active	Not Active	Not Active	Not Active	Not Active	Not Active	1800 nM	1150 nM	–	–	–
O=c1cc(-c2ccccc2)oc2ccc3ccccc3c12 [BETA-NAPHTHOFLAVONE]	Not Active	Not Active	Not Active	Not Active	Not Active	Not Active	Not Active	Not Active	Not Active	–	–	–	–	–
CC(C)C[C@H]1C(=O)N2CCC[C@H]2[C@]2(O)O[C@](NC(=O)[C@@H]3C=C4c5cccc6[nH]c(Br)c(c56)C[C@H]4N(C)C3)(C(C)C)C(=O)N12 [BROMOCRIPTINE]	Not Active	–	Not Active	Not Active	–	Not Active	Not Active	Not Active	Not Active	8.32 nM	5.29 nM	5.64 nM	3.22 nM	–
CS(=O)(=O)OCCCCOS(C)(=O)=O [BUSULFAN]	Not Active	Not Active	Not Active	–	Not Active	Not Active	Not Active	Not Active	Not Active	–	–	–	–	5220 nM
O=C(/C=C/c1ccc(O)c(O)c1)OCCc1ccccc1 [CAFFEIC ACID PHENETHYL ESTER]	Not Active	Not Active	Not Active	Not Active	Not Active	Not Active	Not Active	Not Active	Not Active	–	–	–	–	–
NC(=O)N1c2ccccc2C=Cc2ccccc21 [CARBAMAZEPINE]	Not Active	Not Active	Not Active	Not Active	Not Active	Not Active	Not Active	Not Active	Not Active	–	–	–	–	–
CCOC(=O)n1ccn(C)c1=S [CARBIMAZOLE]	Not Active	Not Active	Not Active	Not Active	Not Active	Not Active	Not Active	Not Active	Not Active	–	–	–	–	–
Oc1ccccc1O [CATECHOL]	Not Active	Not Active	Not Active	–	Not Active	Not Active	Not Active	Not Active	Not Active	–	–	–	–	23400 nM
CO[C@@]1(NC(=O)CSCC#N)C(=O)N2C(C(=O)O)=C(CSc3nnnn3C)CS[C@@H]21 [CEFMETAZOLE]	Not Active	Not Active	Not Active	Not Active	Not Active	Not Active	Not Active	Not Active	Not Active	–	–	–	–	–
CN(C(=O)CCCOc1ccc2[nH]c(=O)ccc2c1)C1CCCCC1 [CILOSTAMIDE]	Not Active	Not Active	Not Active	Not Active	Not Active	Not Active	Not Active	Not Active	Not Active	–	–	–	–	–
CC(C)(Oc1ccc(C2CC2(Cl)Cl)cc1)C(=O)O (stereo not given) [CIPROFIBRATE]	Not Active	Not Active	Not Active	Not Active	Not Active	Not Active	Not Active	Not Active	Not Active	–	–	–	–	–
Nc1nc(Cl)nc2c1ncn2[C@H]1C[C@H](O)[C@@H](CO)O1 [CLADRIBINE]	Not Active	Not Active	Not Active	Not Active	Not Active	Not Active	Not Active	Not Active	Not Active	–	–	–	–	–
CC[C@H]1OC(=O)[C@H](C)[C@@H](O[C@H]2C[C@@](C)(OC)[C@@H](O)[C@H](C)O2)[C@H](C)[C@@H](O[C@@H]2O[C@H](C)C[C@H](N(C)C)[C@H]2O)[C@](C)(OC)C[C@@H](C)C(=O)[C@H](C)[C@@H](O)[C@]1(C)O [CLARITHROMYCIN]	Not Active	Not Active	Not Active	Not Active	Not Active	Not Active	Not Active	Not Active	Not Active	–	–	–	–	–
O=C(O)c1cc(=O)c2c(OCC(O)COc3cccc4oc(C(=O)O)cc(=O)c34)cccc2o1 [CROMOLYN]	Not Active	Not Active	Not Active	Not Active	Not Active	Not Active	Not Active	Not Active	Not Active	–	–	–	–	–
